Results published in US9758550B2, “Cobalamin acquisition protein and use thereof” (Woods Hole Oceanographic Institution, priority 2012, dated 2017).
Like-named read-outs stand apart in the source and are kept apart here.

Assays:
P. tricornutum = test system: P. tricornutum
Protocol: (§1) A. Re-supply Experiment: For both colimitation experiments (T. pseudonana and P. tricornutum), each remaining culture was split in four just after the protein harvest time point. For the T. pseudonana study, the cultures were re-supplied with either 1) nothing, 2) 100 pM B12, 3) 400 nM Fetotal, or 4) both 100 pM B12 and 400 nM Fe. For the P. tricornutum study, the cultures were re-supplied with either 1) nothing, 2) 100 pM B12, 3) 100 nM Fetotal, or 4) both 100 pM B12 and 100 nM Fe.
(§2) For both studies, each culture was monitored for growth via in vivo fluorescence.

T. pseudonana = assay: Re-supply experiment, growth via in vivo fluorescence; type: cell-based, Thalassiosira pseudonana
Protocol: as §1, §2

P. tricornutum cells = assay: Cobalamin (57Co-B12) uptake rate in P. tricornutum cell lines overexpressing CBA1; type: cell-based, Phaeodactylum tricornutum; details: CBA1 overexpression vs wild type and Urease-OE1; exponentially growing cells, B12-replete (100 pM B12), 24 hours
Protocol: B12 Uptake Rate Assessments: Inorganic ^57Co was removed from a carrier-free ^57Co-B12 stock solution (MP Biomedicals) via Chelex-100 (Price et al. (1988/1989) “Preparation and Chemistry of the Artificial Algal Culture Medium Aquil,” Biol Oceanogr 6: 443-461) and the remaining solution was used as a radiotracer in cultures of P. tricornutum. Strains (wild type, two cell lines overexpressing CBA1_48322 and one line overexpressing urease) were grown through three successive transfers into media as described above, with 100 pM B12 and 80 μg/mL zeocin added (zeocin not added to wild type). When the cells were in mid-exponential growth in the third transfer, each strain was used to inoculate (3%) three 28 mL polycarbonate tubes containing 20 mL of growth media with 100 pM B12 and 80 μg/mL zeocin and allowed to acclimate for 3 hours. […] B12 uptake was measured by assessing the percentage of added tracer that was taken up into the particulate fraction via gamma counting as previously described (Bertrand et al. (2007) supra) and assuming that total B12 concentrations were 100 pM for the period of uptake. Cell growth was monitored by fluorescence and then translated to cell number via calibration curves created during growth of the 3rd transfer. […]

For iron, the growth after re-supply (P. tricornutum; low cobalamin/low Fe culture, iron addition alone (100 nM Fe total)) was “rescued”, the growth after re-supply (P. tricornutum; low iron culture re-supplied with 100 nM Fe total) was “rescued the growth” and the growth after re-supply (T. pseudonana; low iron culture re-supplied with 400 nM Fe total) was “rescued the growth”.

In the case of `C/C1=C2/[N-][C@H]([C@H](CC(N)=O)[C@@]2(C)CCC(=O)NC[C@H](C)OP(=O)([O-])O[C@H]2[C@@H](O)[C@@H](n3cnc4cc(C)c(C)cc43)O[C@@H]2CO)[C@]2(C)N=C(/C(C)=C3N=C(/C=C4N=C1[C@@H](CCC(N)=O)C\4(C)C)[C@@H](CCC(N)=O)[C@]\3(C)CC(N)=O)[C@@H](CCC(N)=O)[C@]2(C)CC(N)=O.[Co+2]` (stereo in doubt) [cobalamin], the growth after re-supply (T. pseudonana; low cobalamin culture re-supplied with 100 pM B12) is reported as “rescued the growth”.

B1: CBA1: cobalamin acquisition protein of P. tricornutum (isoform Pt48322), overexpressed as a YFP fusion in the native host (protein, listed as Phaeodactylum tricornutum)
chain: DEPPACLTSTADLSVDIFTDKVEPLFSQGWNVTYHNTYKIANNLFDNTTYLLYQCGSTPPADVVDNGNFNAVLEIPLSNVGLSQTPHIGFMEQLELVDEIAAFLTDTDFISSPCFLDEIAAGNVLTLVEPSEGVDAPATGNTALSAGTVAFVASFTQVPFDNTVNIQEYSELTNVAVFEWVKFFSVFFNKEHTANQVVEAAESRFDCVAQNAGAVQADNMPVKPVVLWAYYSDFCGGWDVAECPNYYCEFANACGAEIISSTEGNTTVCGAPYMTTEELVELGKDADHWIYPSSNWDTASETFGEQLQNMKAVQDQQVFDYQASGENAWFEQRYAEYYNVLADFCAVVGTTQPLTGRSWFRNVFTEPVGSLPDCSPTQSANILDDVHICFLPTTGGAAAGGGSGSGGSSAKAIAVGTAALAAGLLSLIHVLLF
modifications: YFP fusion
notes: cobalamin acquisition protein of P. tricornutum (isoform Pt48322), overexpressed as a YFP fusion in the native host
B1 was tested, and the “enhancement of cell specific radiolabeled cobalamin uptake rates” value (P. tricornutum cells) was 2 to 3 fold.
